Assay results taken from patent US9567339B2, “Primary carboxamides as BTK inhibitors” (AbbVie Inc., priority 2013, dated 2017).
Where two headings read alike, the source gives them in different places.

Biological target: BTK, recombinant human catalytic domain (aa 393-659) (Homo sapiens (Human), UniProt Q06187)
Assay: In vitro BTK kinase activity measured by time-resolved fluorescence resonance energy transfer (trFRET)
Assay type: biochemical
Conditions: read-out: Btk IC50
[1] = trFRET, 0.001 mM ATP, biotin-TYR1 peptide substrate

Chain of BTK, recombinant human catalytic domain (aa 393-659) (Q06187 393-659): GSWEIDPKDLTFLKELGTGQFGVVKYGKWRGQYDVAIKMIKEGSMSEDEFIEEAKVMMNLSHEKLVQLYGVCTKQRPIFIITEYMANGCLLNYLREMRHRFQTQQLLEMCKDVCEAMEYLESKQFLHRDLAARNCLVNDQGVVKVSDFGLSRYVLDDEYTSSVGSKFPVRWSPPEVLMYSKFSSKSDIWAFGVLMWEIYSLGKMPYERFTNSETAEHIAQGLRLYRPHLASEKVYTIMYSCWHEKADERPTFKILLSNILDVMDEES

CC(=O)C(=O)Nc1cccc(-c2ccc(C(N)=O)c3[nH]ccc23)c1 [E.7.1]
IC50: 100 to 1000 nM

C/C=C/C(=O)NCc1ccccc1-c1cc2c(-c3cccc(NC(=O)c4nccs4)c3C)ccc(C(N)=O)c2[nH]1 [D.1.9]
IC50 [1]: 1000 to 10000 nM

Cc1c(NC(=O)/C=C/CNC2CC2)cccc1-c1ccc(C(N)=O)c2[nH]ccc12 [J.1.4]
IC50: 100 to 1000 nM

Cc1c(-c2ccc(C(N)=O)c3[nH]c(-c4cnn(C[C@H](O)CO)c4)cc23)cccc1-n1cnc2ccccc2c1=O [K.1.1]
IC50: < 100 nM

Cc1c(-c2ccc(C(N)=O)c3[nH]c(-c4cccnc4)cc23)cccc1-n1cnc2ccccc2c1=O [A.7.2]
IC50 [1]: < 100 nM

NC(=O)c1ccc(-c2ccccc2N)c2cc[nH]c12 [A.5.1, 4-(2-aminophenyl)-1H-indole-7-carboxamide]
IC50 [1]: 1000 to 10000 nM

C=CC(=O)Nc1cncc(-c2ccc(C(N)=O)c3[nH]ccc23)c1 [E.1.4]
IC50: < 100 nM

NC(=O)c1ccc(I)c2cc(-c3cccnc3)[nH]c12 [F.1, 4-iodo-2-(pyridin-3-yl)-1H-indole-7-carboxamide]
IC50 [1]: 100 to 1000 nM

C=CC(=O)N1CC([C@@H](C)c2ncc(C(N)=O)c3[nH]ccc23)C1 [E.9.28]
IC50: < 100 nM

NC(=O)c1ccc(N2CCC[C@@H](NC(=O)Nc3nccs3)C2)c2cc[nH]c12 [O.1.7*]
IC50: 1000 to 10000 nM

NC(=O)c1ccc(N2CCC[C@@H](n3cnc4ccccc4c3=O)C2)c2cc[nH]c12 [O.1.12*]
IC50: 1000 to 10000 nM

Cc1c(-c2ccc(C(N)=O)c3[nH]c(-c4cnn(C)c4)cc23)cccc1N(C(=O)c1nccs1)C1COC1 [A.10.3, N-(3-(7-carbamoyl-2-(1-methyl-1H-pyrazol-4-yl)-1H-indol-4-yl)-2-methylphenyl)-N-(oxetan-3-yl)thiazole-2-carboxamide]
IC50 [1]: < 100 nM

C=CC(=O)N1CCc2cc(C(N)=O)c3[nH]ccc3c21 [Example 4, 1-Acryloyl-1,2,3,6-tetrahydropyrrolo[2,3-e]indole-5-carboxamide]
IC50 [1]: 100 to 1000 nM

C=CC(=O)Nc1cccc(-c2ccc(C(N)=O)c3[nH]ccc23)c1F [E.1.33]
IC50: < 100 nM

C/C=C/C(=O)Nc1cccc(-c2ccc(C(N)=O)c3[nH]ccc23)c1C [D.8.9]
IC50 [1]: 100 to 1000 nM

C=C(C(=O)Nc1cccc(-c2ccc(C(N)=O)c3[nH]ccc23)c1C)c1ccccc1 [D.8.7]
IC50 [1]: 100 to 1000 nM

C=CC(=O)N1CCC[C@@H](c2ccc(C(N)=O)c3[nH]c(-c4cnn(C)c4)cc23)C1 [Example 4.1]
IC50: < 100 nM

C=CC(=O)Nc1cc(-c2ccc(C(N)=O)c3[nH]ccc23)ccc1Cl [E.1.19]
IC50: < 100 nM

C=CC(=O)N1CCC[C@@H](c2cnc(C(N)=O)c3sc(-c4cnn(C)c4)nc23)C1 [E.9.37]
IC50: < 100 nM

CC(=O)N1CC=C(c2cc3c(-c4cccc(-n5cnc6ccccc6c5=O)c4C)ccc(C(N)=O)c3[nH]2)CC1 [A.3.1]
IC50 [1]: < 100 nM

Cc1oncc1C(=O)Nc1cccc(-c2ccc(C(N)=O)c3[nH]ccc23)c1 [E.2.1, N-(3-(7-carbamoyl-1H-indol-4-yl)phenyl)-5-methylisoxazole-4-carboxamide]
IC50 [1]: 1000 to 10000 nM

NC(=O)c1ccc(N2CCC[C@@H](n3cnc4ccccc4c3=O)C2)c2cc(-c3ccc(F)cc3)[nH]c12 [O.1.14*]
IC50: 100 to 1000 nM

C=CC(=O)Nc1cccc(-c2ccc(C(N)=O)c3[nH]c(-c4cn(C)nc4C)cc23)c1C [A.1.5]
IC50 [1]: < 100 nM

Cn1cc(-c2cc3c(N4CCC[C@@H](NC(=O)c5ccc(C(F)F)cc5)C4)ccc(C(N)=O)c3[nH]2)cn1 [O.1.22*]
IC50: 100 to 1000 nM

Cc1c(NC(=O)/C=C\C(N)=O)cccc1-c1ccc(C(N)=O)c2[nH]c(C3=CCN(S(C)(=O)=O)CC3)cc12 [D.7.10]
IC50: < 100 nM

Cc1cnc(C(=O)Nc2cccc(-c3ccc(C(N)=O)c4[nH]c(C5=CCN(S(C)(=O)=O)CC5)cc34)c2C)s1 [D.7.32]
IC50: < 100 nM

NC(=O)c1ccc(-c2ccncc2)c2cc(-c3ccc(F)cc3)[nH]c12 [A.9.4]
IC50 [1]: 100 to 1000 nM

C=CC(=O)Nc1cccc(-c2ccc(C(N)=O)c3[nH]c(-c4cccc(C(=O)OC)c4)cc23)c1C [A.1.19]
IC50 [1]: < 100 nM

Cc1ccc(-c2cc3c(-c4cccs4)ccc(C(N)=O)c3[nH]2)cc1 [A.8.9]
IC50 [1]: 100 to 1000 nM

Cc1c(-c2ccc(C(N)=O)c3[nH]c(C4=CCN(S(C)(=O)=O)CC4)cc23)cccc1N(C(=O)c1ccc(C(F)F)cc1)C1COC1 [A.4.12]
IC50 [1]: < 100 nM

C=C(CNC)C(=O)Nc1cccc(-c2ccc(C(N)=O)c3[nH]ccc23)c1 [G.1.3]
IC50: < 100 nM

CCC(=O)NCc1ccccc1-c1cc2c(-c3cccc(NC(=O)c4nccs4)c3C)ccc(C(N)=O)c2[nH]1 [E.4.2]
IC50: 1000 to 10000 nM

Cc1c(-c2ccc(C(N)=O)c3[nH]c(-c4cncnc4)cc23)cccc1-n1cnc2ccc(F)cc2c1=O [A.13.2]
IC50 [1]: 100 to 1000 nM

C=CC(=O)Nc1cccc(-c2ccc(C(N)=O)c3[nH]c(-c4ccc(C(=O)N(C)C)cc4)cc23)c1C [A.1.35]
IC50 [1]: < 100 nM

Cc1c(NC(=O)/C=C/c2ccccn2)cccc1-c1ccc(C(N)=O)c2[nH]ccc12 [D.8.3]
IC50 [1]: 100 to 1000 nM

Cc1c(NC(=O)COc2ccccn2)cccc1-c1ccc(C(N)=O)c2[nH]c(C3=CCN(S(C)(=O)=O)CC3)cc12 [D.7.24]
IC50: < 100 nM

C=CC(=O)N1CC(Nc2cnc(C(N)=O)c3[nH]ccc23)C1 [E.9.34]
IC50: < 100 nM

C=CC(=O)Nc1cc(OC)cc(-c2ccc(C(N)=O)c3[nH]ccc23)c1 [E.1.28]
IC50: 100 to 1000 nM

C=CC(=O)N1CC(N(C)c2ccc(C(N)=O)c3[nH]c(-c4ccc(N5CCOCC5)nc4)cc23)C1 [E.9.10]
IC50: < 100 nM

Cc1c(NC(=O)c2nccs2)cccc1-c1ccc(C(N)=O)c2[nH]cc(C)c12 [Example 3, N-(3-(7-carbamoyl-3-methyl-1H-indol-4-yl)-2-methylphenyl)thiazole-2-carboxamide]
IC50 [1]: 100 to 1000 nM

C=CC(=O)Nc1cccc(-c2ccc(C(N)=O)c3[nH]c(-c4cccc(N(C)C)c4)cc23)c1C [A.1.27]
IC50 [1]: < 100 nM

Cc1c(NC(=O)C2CCN(C)CC2)cccc1-c1ccc(C(N)=O)c2[nH]c(C3=CCN(S(C)(=O)=O)CC3)cc12 [D.7.36]
IC50: < 100 nM

Cc1c(NC(=O)C2CCOCC2)cccc1-c1ccc(C(N)=O)c2[nH]c(C3=CCN(S(C)(=O)=O)CC3)cc12 [D.7.33]
IC50: < 100 nM

C=CC(=O)Nc1cccc(-c2ccc(C(N)=O)c3[nH]c(-c4cnn(CC)c4)cc23)c1C [A.1.6]
IC50 [1]: < 100 nM

Cc1c(NC(=O)CCN2CCCC2)cccc1-c1ccc(C(N)=O)c2[nH]c(C3=CCN(S(C)(=O)=O)CC3)cc12 [D.7.12]
IC50: < 100 nM

Cc1c(-c2ccc(C(N)=O)c3[nH]c(C4=CCNCC4)cc23)cccc1-n1cnc2ccccc2c1=O [G.1.1, 4-(2-methyl-3-(4-oxoquinazolin-3(4H)-yl)phenyl)-2-(1,2,3,6-tetrahydropyridin-4-yl)-1H-indole-7-carboxamide]
IC50: < 100 nM

CC(C)(C)c1cc(C(=O)N[C@@H]2CCCN(c3ccc(C(N)=O)c4[nH]ccc34)C2)no1 [O.1.10*]
IC50: 1000 to 10000 nM

C=CC(=O)N1CC(N(C)c2ccc(C(N)=O)c3[nH]c(C)cc23)C1 [E.9.25]
IC50: < 100 nM

Cc1c(NC(=O)/C=C/CN(C)C)cccc1-c1cnc(C(N)=O)c2[nH]ccc12 [J.2.1]
IC50: 100 to 1000 nM

C=CC(=O)Nc1c[nH]c2c(C(N)=O)ccc(-c3cccc(NC(=O)c4nccs4)c3C)c12 [D.3.2]
IC50 [1]: 1000 to 10000 nM

Cc1ccc(-c2cc3c(-c4ccncc4)ccc(C(N)=O)c3[nH]2)cc1 [A.8.4]
IC50 [1]: 100 to 1000 nM

C=CC(=O)Nc1cccc(-c2ccc(C(N)=O)c3[nH]c(-c4c(C)noc4C)cc23)c1C [A.1.1]
IC50 [1]: 100 to 1000 nM

Cc1c(NC(=O)/C=C/C(N)=O)cccc1-c1ccc(C(N)=O)c2[nH]c(C3=CCN(S(C)(=O)=O)CC3)cc12 [D.7.25]
IC50: < 100 nM

CC(=O)N1CC=C(c2cc3c(-c4cccc(NC(=O)c5ccc(C6CC6)cc5)c4C)ccc(C(N)=O)c3[nH]2)CC1 [A.3.6]
IC50 [1]: < 100 nM

C=CC(=O)N1CCCC(c2ccc(C(N)=O)c3[nH]ccc23)C1 (centres unmarked) [Example 25, 4-(1-Acryloylpiperidin-3-yl)-1H-indole-7-carboxamide]
IC50 [1]: 100 to 1000 nM

NC(=O)c1ccc(N2CCC[C@@H](n3cnc4ccc(F)cc4c3=O)C2)c2cc(-c3ccc(F)cc3)[nH]c12 [O.1.15*]
IC50: 1000 to 10000 nM

Cc1c(NC(=O)CCN2CCN(C)CC2)cccc1-c1ccc(C(N)=O)c2[nH]c(C3=CCN(S(C)(=O)=O)CC3)cc12 [D.7.27]
IC50: < 100 nM

CCOC(=O)/C=C/C(=O)Nc1cccc(-c2ccc(C(N)=O)c3[nH]ccc23)c1C [D.8.1]
IC50 [1]: < 100 nM

Cc1c(NC(=O)c2ccc(C(F)F)cc2)cccc1-c1ccc(C(N)=O)c2[nH]ccc12 [O.1.1]
IC50: 100 to 1000 nM

C=CC(=O)N1CC(N(C)c2ccc(C(N)=O)c3[nH]c([C@H]4CCOC4)cc23)C1 [Example 5.2]
IC50: < 100 nM

C=CC(=O)N1CCO[C@H](c2ccc(C(N)=O)c3[nH]c(-c4cnn(C)c4)cc23)C1 [E.9.23]
IC50: < 100 nM

CS(=O)(=O)N1CC=C(c2cc3c(N4CCC[C@@H](NC(=O)c5nccs5)C4)ccc(C(N)=O)c3[nH]2)CC1 [Example 13A, (R)—N-(1-(7-Carbamoyl-2-(1-(methylsulfonyl)-1,2,3,6-tetrahydropyridin-4-yl)-1H-indol-4-yl)piperidin-3-yl)thiazole-2-carboxamide]
IC50 [1]: < 100 nM

C=CC(=O)N1CCCC(c2ccc(C(N)=O)c3[nH]c(-c4cnn(C)c4)cc23)C1 (centres unmarked) [Example 26, 4-(1-Acryloylpiperidin 3-yl)-2-(1-methyl-1H-pyrazol-4-yl)-1H-indole-7-carboxamide]
IC50 [1]: < 100 nM

Cc1c(NC(=O)/C=C/CN2CCN(C)CC2)cccc1-c1ccc(C(N)=O)c2[nH]ccc12 [J.1.6]
IC50: 1000 to 10000 nM

CS(=O)(=O)N1CC=C(c2cc3c(-c4ccccc4N)ccc(C(N)=O)c3[nH]2)CC1 [A.4.2, 4-(2-aminophenyl)-2-(1-(methylsulfonyl)-1,2,3,6-tetrahydropyridin-4-yl)-1H-indole-7-carboxamide]
IC50 [1]: < 100 nM

C=CC(=O)Nc1cccc(-c2ccc(C(N)=O)c3[nH]c(C=C)cc23)c1 [E.1.18]
IC50: < 100 nM

Cc1ccc(-c2cc3c(-c4ccsc4)ccc(C(N)=O)c3[nH]2)cc1 [A.8.6]
IC50 [1]: 100 to 1000 nM

COC(=O)/C=C/C(=O)Nc1cccc(-c2ccc(C(N)=O)c3[nH]ccc23)c1 [D.1, (E)-Methyl 4-((3-(7-carbamoyl-1H-indol-4-yl)phenyl)amino)-4-oxobut-2-enoate]
IC50 [1]: < 100 nM
